Test results published in the supplement of paper PMC3974653.
Structures can show the parent of a compound that is named as a salt.

What follows are compounds tested on MTT (mouse pheochromocytoma) (assay: IC50 of cell viability (ATP content)). Settings: (24 or 48 h).
Summary of the method: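 Library compounds were tested at 8 final concentrations (0.5 nM to 46 µM) on MTT mouse pheochromocytoma cells for 24 or 48 hrs, with readout by CellTiter-Glo ATP luminescence. Signals were normalised with positive-control wells at 100% and DMSO wells at 0%. IC50 values were obtained by a four-parameter logistic fit.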

Row | IC50 of cell viability [µM] | Compound
1 | > 46 | C[C@@]12CC(O)[C@]3(F)C(CCC/4=C/C(=O)/C=C\[C@@]34C)C1CC(O)[C@@]2(O)C(=O)CO (stereo partly drawn) [TRIAMCINOLONE]
2 | > 46 | O=C(O)Cc1ccccc1Oc1ccc(Cl)cc1Cl [Fenclofenac]
3 | > 46 | COc1cc(C=O)ccc1O [Vanillin]
4 | > 46 | COC(=O)N[C@H](C(=O)N[C@@H](Cc1ccccc1)[C@@H](O)CN(Cc1ccc(-c2ccccn2)cc1)NC(=O)[C@@H](NC(=O)OC)C(C)(C)C)C(C)(C)C [Atazanavir]
5 | > 46 | Cc1scc2c1N(C(=O)CN1CCN(C)CC1)c1ccccc1NC2=O [TELENZEPINE]
6 | > 46 | CCOCCn1c(N2CCCN(C)CC2)nc2ccccc21 [EMEDASTINE DIFUMARATE]
7 | > 46 | NCC[S+](=O)([O-])O [TAURINE]
8 | > 46 | CCN1\C=C(\C(O)=O)C(=O)C2=CC(=C(N3CCN[C@@H](C)C3)C(=C12)F)F [Lomefloxacin HCl]
9 | > 46 | CCCCCOC(=O)Nc1nc(=O)n(C2O[C@H](C)[C@@H](O)[C@@H]2O)cc1F (stereo partly drawn) [Capecitabine]
10 | > 46 | OCC1OC(OC2C(CO)OC(OC3C(CO)OC(O)C(O)C3O)C(O)C2O)C(O)C(O)C1O (stereo not drawn) [Maltotriose]
11 | > 46 | CN[C@H]1[C@@H](O)[C@@H](NC)[C@@H]2O[C@]3(O)C(=O)C[C@@H](C)O[C@H]3O[C@H]2[C@H]1O [Spectinomycin dihydrochloride]
12 | > 46 | NCCc1c[nH]cn1 [HISTAMINE]
13 | > 46 | O=C(Cn1ccnc1[N+](=O)[O-])NCCO [ETANIDAZOLE]
14 | > 46 | FC1(F)C(F)(F)C(F)(F)C2(F)C(F)(F)C(F)(F)C(F)(F)C(F)(F)C2(F)C1(F)F (stereo not drawn) [PERFLUNAFENUM]
15 | > 46 | C[C@@H](C(=O)O)c1ccc(C(=O)c2ccccc2)s1 [Tiaprofenic acid]
16 | > 46 | CC(C)Cc1ccc(C(C)C(=O)O)cc1 (stereo not drawn) [Ibuprofen]
17 | > 46 | O=C(O)CC1=S=C(c2ccccc2)N=C1c1ccc(Cl)cc1 [Fentiazac]
18 | > 46 | [H][C@]1(CCCN(CC\C=C(\C2=C(C)C=CS2)C3=C(C)C=CS3)C1)C(O)=O [Tiagabine hydrochloride]
19 | > 46 | CC[C@@]12CCCN3CCc4c(n(c5ccccc45)C(=O)C1)[C@H]32 [Eburnamonine (-)]

Row | IC50 of cell viability [µM] | Compound
20 | > 46 | OC[C@H]1O[C@H](C[C@@H]1O)N2\C=C(F)/C(=O)NC2=O [Floxuridine]
21 | > 46 | CCOC(=O)c1ccc(OCCN2C[C@H](O)[C@@H](O)[C@H](O)[C@H]2CO)cc1 [EMIGLITATE]
22 | > 46 | CC(C)=CCC/C(C)=C\CC/C(C)=C\CC/C(C)=C\CC1=C(C)C(=O)c2ccccc2C1=O [Vitamin K2]
23 | > 46 | CC(=O)NCCCCCC(=O)O [ACEXAMIC ACID]
24 | > 46 | C[C@@]12CC[C@H]3[C@@H](CC\C4=C\C(=O)CC[C@@]34C)[C@H]1CC[C@H]2C(=O)CO [Deoxycorticosterone]
25 | > 46 | c1ccc(CNCCNCc2ccccc2)cc1 [N,N'-DIBENZYLETHYLENEDIAMMONIUM DI(ACETATE)]
26 | > 46 | Cc1ncc(CO)c(C=O)c1O [PYRIDOXAL HYDROCHLORIDE]
27 | > 46 | FC(F)(F)COCC(F)(F)F [FLUROTYLUM]
28 | > 46 | N=C(N)NC(=N)NCCc1ccccc1.[Cl-].[H+] [Phenformin HCl]
29 | > 46 | CC[C@@]1(c2ccccc2)NC(=O)N(C)C1=O [MEPHENYTOIN]
30 | > 46 | C[N+]1(CCCCC[N+]2(C)CCCC2)CCCC1.O=C([O-])[C@@H](O)[C@@H](O)C(=O)O.O=C([O-])[C@@H](O)[C@@H](O)C(=O)O [Pentolinium bitartrate]
31 | > 46 | COc1cc(C(=O)N2CCOCC2)cc(OC)c1OC [TRIMETOZINUM]
32 | > 46 | CC(=O)[C@]1(O)Cc2c(O)c3c(c(O)c2[C@@H](O[C@H]2C[C@H](N)[C@H](O)[C@H](C)O2)C1)C(=O)c1ccccc1C3=O [IDARUBICIN HYDROCHLORIDE]
33 | > 46 | CC(CN1c2ccccc2Sc2ccccc21)N(C)C (stereo not drawn) [PROMETHAZINE]
34 | > 46 | COc1ccc(CCN(C)CCCC(C#N)(c2ccc(OC)c(OC)c2)C(C)C)cc1OC (stereo not drawn) [VERAPAMIL]
35 | > 46 | NC(=O)NNc1ccccc1 [Fenicarbazida]
36 | > 46 | CN1CCN(CC1)\C2=N\C3=C(NC4=C2C=CC=C4)C=CC(=C3)Cl [CLOZAPINE]
37 | > 46 | CNC[C@H](O)c1ccc(OC(=O)C(C)(C)C)c(OC(=O)C(C)(C)C)c1 [Dipivefrin hydrochloride]
38 | > 46 | CN1C(=O)C[C@@H](C(=O)N[C@@H](Cc2c[nH]cn2)C(=O)N2CCC[C@H]2C(N)=O)NC1=O [TALTIRELIN HYDRATE]

Row | IC50 of cell viability [µM] | Compound
39 | > 46 | O=c1oc2cc(O)ccc2s1 [TIOXOLONE]
40 | > 46 | CN(C)[C@H]\1[C@@H]2C[C@H]3\C(=C(\O)[C@@]2(O)C(=O)\C(=C1O)C(N)=O)C(=O)C4=C(O)C=CC(=C4[C@]3(C)O)Cl [Chlortetracycline hydrochloride]
41 | > 46 | Cc1cnc(NC(=O)C2C(=O)c3ccccc3[S+](=O)([O-])N2C)s1 (stereo not drawn) [Meloxicam]
42 | > 46 | CC(C)Cc1ccc(CC(=O)O)cc1 [Ibufenac]
43 | > 46 | CN(C)/C=N/c1c(I)cc(I)c(CCC(=O)O)c1I [IPODATE CALCIUM]
44 | > 46 | C#C[C@]1(OC(C)=O)CC[C@H]2[C@@H]3CCC4=C[C@@H](OC(C)=O)CC[C@@H]4[C@H]3CC[C@@]21C [ETHYNODIOL DIACETATE]
45 | > 46 | [Na+].CC(=O)OC\C1=C(\[N@]2[C@@H](SC1)[C@H](NC(=O)CSC3=CC=NC=C3)C2=O)C([O-])=O [Cephapirin sodium salt]
46 | > 46 | O=C(OC[C@@H](O)CO)c1ccccc1Nc1ccnc2cc(Cl)ccc12 [Glafenine hydrochloride]
47 | > 46 | CNCCC(Oc1ccccc1C)c1ccccc1 (stereo not drawn) [Tomoxetine]
48 | > 46 | CC(=O)O[C@H]1CC[C@]\2(C)C3CC[C@@]\4(C)C(C\C=C4C5=CC=CN=C5)C3C\C=C2C1 (stereo partly drawn) [Abiraterone Acetate]
49 | > 46 | CC1(C)O[C@@H]2C[C@H]3[C@@H]4C[C@H](F)C/5=C/C(=O)/C=C\[C@]5(C)[C@@]4(F)[C@@H](O)C[C@]3(C)[C@@]2(O1)C(=O)CO [Fluocinolone acetonide]
50 | > 46 | O=C(Nc1ccc(Cl)cc1)Nc1ccc(Cl)c(C(F)(F)F)c1 [Cloflucarban]
51 | > 46 | Clc1ccc2nsnc2c1NC1=NCCN1 [Tizanidina]
52 | > 46 | CCCCc1oc2ccccc2c1C(=O)c1cc(I)c(OCCN(CC)CC)c(I)c1 [Amiodarone hydrochloride]
53 | > 46 | C\C1=C\C(=O)NC(=S)N1 [METHYLTHIOURACIL]
54 | > 46 | CC(C)[N+](C)(C)CC(O)COc1cccc2ccccc12 (stereo not drawn) [PRANOLII CHLORIDUM]
55 | > 46 | Cc1c(C)n(CCN(C)C)c2ccc(C(=O)OCCN(C)C)cc12 [AMINDOCATUM]
56 | > 46 | Cc1nc[nH]c1CC1CCc2c(C)c3ccccc3n2C1=O (stereo not drawn) [Fabesetron]
57 | > 46 | c1ccc2c(CCC3CC[NH2+]CC3)c[nH]c2c1 [Indalpine]

Row | Compound | IC50 of cell viability [µM]
58 | CCCC(C)C1(CC)C(=O)NC(=S)NC1=O (stereo not drawn) [THIOPENTAL SODIUM] | > 46
59 | Cc1ccc(O)cc1.Cc1cccc(O)c1.Cc1ccccc1O [m-Cresol and o-cresol and p-cresol mixture] | > 46
60 | O[C@H]1[C@H]2[C@H](O)CCCN2C[C@H]1O [TRIDOLGOSIRUM] | > 46
61 | O=C(O)c1nn(Cc2ccc(Cl)cc2Cl)c2ccccc12 [Lonidamine] | > 46
62 | CCOCCOC(C)=O [2-Ethoxyethyl acetate] | > 46
63 | COc1ccccc1N1CCNCC1.Cl [1-(2-Methoxyphenyl)piperazine hydrochloride] | > 46
64 | CCN(CC)C(=O)[C@H]\1CN(C)[C@@H]\2CC3=C[NH]C4=C3C(=CC=C4)C2=C1 [Lysergic acid diethylamide] | > 46
65 | CC(Cc1ccccc1)NC=O (stereo not drawn) [Formetorex] | > 46
66 | CCCC[N+]1(C)C2CC(OC(=O)C(CO)c3ccccc3)CC1C1OC12 (stereo not drawn) [BUTYLSCOPOLAMMONIUM] | > 46
67 | CC1=C(C\C2=N\CCN2)C3=C(S1)C=CC=C3.OC(=O)C(O)=O [Benazoline oxalate] | > 46
68 | CC(C)(C)NCC(O)c1cc(Cl)c(N)c(Cl)c1 (stereo not drawn) [CLENBUTEROL] | > 46
69 | CC1OC(OC2C(O)CC(OC3C(O)CC(OC4CCC5(C)C(CCC6C5CCC5(C)C(C7=CC(=O)OC7)CCC65O)C4)OC3C)OC2C)CC(O)C1O (stereo not drawn) [Digitoxin] | > 46
70 | Br.CN1[C@H]2C[C@H](OC(=O)[C@H](CO)c3ccccc3)C[C@H]1[C@H]1O[C@H]12.O.O.O [Scopolamine hydrobromide trihydrate] | > 46
71 | CCN(CCCc1ccccc1)CCCc1ccccc1.O=C(O)CC(O)(CC(=O)O)C(=O)O [Alverine citrate salt] | > 46
72 | C=CCN1CCC23c4c5ccc(O)c4O[C@H]2C(=O)CC[C@@]3(O)C1C5 (stereo partly drawn) [NALOXONE] | > 46
73 | [O]=[Cd] [Cadmium oxide] | > 46
